Experiments:
Format in all cases: binding
KRAS D92C/G12D = biological target: T1, KRAS D92C/G12D (Homo sapiens, UniProt P01116, D92C/G12D); experiment: Covalent modification of KRAS mutant by competition probes (TOF mass spectrometry, Agilent RapidFire)
T1 construct: made in house
Description: (§1) KRAS mutant proteins were produced with one substituted amino acid selected from E62C, D92C, and H95C and with either glycine at the 12 position (WT) or an additional mutation to aspartic acid at the 12 position (G12D) relative to SEQ ID NO: 1 when optimally aligned. These mutations are depicted on an X-ray crystal structure in FIG. 2. These mutants were tested for reactivity (e.g., covalent modification of the KRAS mutant) with a panel of competition probes that bind the Switch II binding pocket and covalently modify the substituted amino acid with appropriately placed electrophiles based on modeling/docking studies. Screening was carried out by time-of-flight (TOF) mass spectrometry on an Agilent RapidFire system. […] Competition probe reactivity with the G12D mutant or other 12 position mutants may be optimized by iterative structural modification and testing.

KRAS D92C/WT = biological target: T2, KRAS D92C/WT (Homo sapiens, UniProt P01116, D92C); experiment: as above
T2 construct: made in house
Description: as §1

KRAS E62C/G12D = biological target: T3, KRAS E62C/G12D (Homo sapiens, UniProt P01116, E62C/G12D); experiment: as above
T3 construct: made in house
Description: as §1

KRAS E62C/WT = biological target: T4, KRAS E62C/WT (Homo sapiens, UniProt P01116, E62C); experiment: as above
T4 construct: made in house
Description: as §1

KRAS H95C/G12D = biological target: T5, KRAS H95C/G12D (Homo sapiens, UniProt P01116, G12D/H95C); experiment: as above
T5 construct: made in house
Description: as §1

KRAS H95C/WT = biological target: T6, KRAS H95C/WT (Homo sapiens, UniProt P01116, H95C); experiment: as above
T6 construct: made in house
Description: as §1

RALA G23C = biological target: T7, RALA G23C (Homo sapiens, UniProt P11233, G23C); experiment: Rate constant of covalent reaction of competition probes with RALA mutant (mass spectrometry)
T7 construct: (residues 11-183, either WT or G23C); hexahistidine (TEV-cleavable); made in house; host or cells: Escherichia coli BL21 (DE)
T7 sequence (P11233 11-183 G23C): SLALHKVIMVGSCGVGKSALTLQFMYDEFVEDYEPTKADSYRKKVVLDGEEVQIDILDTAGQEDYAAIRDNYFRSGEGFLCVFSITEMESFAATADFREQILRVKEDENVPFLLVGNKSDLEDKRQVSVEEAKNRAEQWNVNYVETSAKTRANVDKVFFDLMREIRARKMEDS
Description: Hexahistidine-tagged recombinant human RalA (“hexahistidine” disclosed as SEQ ID NO: 49) (residues 11-183, either WT or G23C) was transformed into Escherichia coli (BL21 (DE)). After the bacterial grew to an OD(600) of 0.4-0.6 in Terrific Broth containing 30 mg/L kanamycin at 37° C., induction was carried out at 18° C. using 0.5 mM IPTG and growth was continued at 18° C. for about 18 h. The bacteria were harvested by centrifugation and the obtained pellet was either stored at −80° C. or used freshly for the subsequent steps.
(§2) RALA mutant proteins were produced with one mutation to cysteine at the 23 position (G23C) relative to SEQ ID NO: 8 when optimally aligned. KRAS mutant proteins were produced with one mutation to cysteine at the 12 position (G12C) relative to SEQ ID NO: 1 when optimally aligned. The RALA and KRAS mutants were tested for reactivity (e.g., covalent modification of the mutant) with a panel of competition probes that bind the Switch II binding pocket and covalently modify the substituted amino acid with appropriately placed electrophiles based on modeling/docking studies. One such inhibitor covalently bound to RAS (via G12) is depicted in FIG. 2. Screening was carried out by mass spectrometry on an Agilent RapidFire or ThermoScientific Q Exactive system.

KRAS G12C = biological target: T8, KRAS G12C (Homo sapiens, UniProt P01116, G12C); experiment: Rate constant of covalent reaction of competition probes with KRAS mutant (mass spectrometry)
T8 construct: made in house
Description: as §2

Row | Structure (SMILES) | % Covalent Modification with Indicated Protein at 6 hr, D92C/G12D (KRAS D92C/G12D; probe 30 μM) | % Covalent Modification with Indicated Protein at 6 hr, D92C/WT (KRAS D92C/WT; probe 30 μM) | % Covalent Modification with Indicated Protein at 6 hr, E62C/G12D (KRAS E62C/G12D; probe 30 μM) | % Covalent Modification with Indicated Protein at 6 hr, E62C/WT (KRAS E62C/WT; probe 30 μM) | % Covalent Modification with Indicated Protein at 6 hr, H95C/G12D (KRAS H95C/G12D; probe 30 μM) | Rate Constant for Reaction with Indicated Protein, RALA G23C (RALA G23C) | Rate Constant for Reaction with Indicated Protein, KRAS G12C (KRAS G12C) | further results
1 | C=CS(=O)(=O)NC1CCCN(c2nc(N3CCN(C(C)=O)CC3)c3cc(Cl)c(-c4c(O)cccc4F)c(F)c3n2)C1 (centres unmarked) [CP-001] | 12% | 97% | 4% | 72% | 60% |  |  | 
2 | C=CC(=O)NC1CCCN(c2nc(N3CCN(C(C)=O)CC3)c3cc(Cl)c(-c4c(O)cccc4F)c(F)c3n2)C1 (centres unmarked) [CP-002] |  |  |  |  |  |  |  | % Covalent Modification with Indicated Protein at 6 hr, D92C/WT (KRAS D92C/WT; probe 100 μM): 2%; % Covalent Modification with Indicated Protein at 6 hr, E62C/G12D (KRAS E62C/G12D; probe 100 μM): 1%; % Covalent Modification with Indicated Protein at 6 hr, E62C/WT (KRAS E62C/WT; probe 100 μM): 6%; % Covalent Modification with Indicated Protein at 6 hr, H95C/G12D (KRAS H95C/G12D; probe 100 μM): 5%
3 | C=CS(=O)(=O)NC1CCN(c2nc(N3CCN(C(C)=O)CC3)c3cc(Cl)c(-c4c(O)cccc4F)c(F)c3n2)C1 (centres unmarked) [CP-003] | 8% | 89% | 11% | 86% | 12% |  |  | 
4 | C=CC(=O)NC1CCN(c2nc(N3CCN(C(C)=O)CC3)c3cc(Cl)c(-c4c(O)cccc4F)c(F)c3n2)C1 (centres unmarked) [CP-004] |  |  |  |  |  |  |  | % Covalent Modification with Indicated Protein at 6 hr, D92C/WT (KRAS D92C/WT; probe 100 μM): 4%; % Covalent Modification with Indicated Protein at 6 hr, E62C/G12D (KRAS E62C/G12D; probe 100 μM): 1%; % Covalent Modification with Indicated Protein at 6 hr, E62C/WT (KRAS E62C/WT; probe 100 μM): 3%; % Covalent Modification with Indicated Protein at 6 hr, H95C/G12D (KRAS H95C/G12D; probe 100 μM): 2%
5 | C=CS(=O)(=O)N1CCC(Nc2nc(N3CCN(C(C)=O)CC3)c3cc(Cl)c(-c4c(O)cccc4F)c(F)c3n2)CC1 [CP-005] | 11% | 28% | 6% | 82% | 12% |  |  | % Covalent Modification with Indicated Protein at 6 hr, H95C/WT (KRAS H95C/WT; probe 30 μM): 21%
6 | C=CC(=O)N1CCC(Nc2nc(N3CCN(C(C)=O)CC3)c3cc(Cl)c(-c4c(O)cccc4F)c(F)c3n2)C1 (centres unmarked) [CP-006] | 5% | 93% | 2% | 14% | 4% |  |  | % Covalent Modification with Indicated Protein at 6 hr, H95C/WT (KRAS H95C/WT; probe 30 μM): 19%
7 | C=CS(=O)(=O)N1CCC(Nc2nc(N3CCN(C(C)=O)CC3)c3cc(Cl)c(-c4c(O)cccc4F)c(F)c3n2)C1 (centres unmarked) [CP-007] |  |  |  |  |  |  |  | % Covalent Modification with Indicated Protein at 6 hr, D92C/G12D (KRAS D92C/G12D; probe 10 μM): 29%; % Covalent Modification with Indicated Protein at 6 hr, D92C/WT (KRAS D92C/WT; probe 10 μM): 99%; % Covalent Modification with Indicated Protein at 6 hr, E62C/G12D (KRAS E62C/G12D; probe 10 μM): 19%; % Covalent Modification with Indicated Protein at 6 hr, E62C/WT (KRAS E62C/WT; probe 10 μM): 96%; % Covalent Modification with Indicated Protein at 6 hr, H95C/G12D (KRAS H95C/G12D; probe 10 μM): 17%; % Covalent Modification with Indicated Protein at 6 hr, H95C/WT (KRAS H95C/WT; probe 10 μM): 43%
8 | C=CC(=O)N1CC(N2CCN(C(=O)CNc3cc(C4(C)CC4)c(Cl)cc3O)CC2)C1 [CP-008] |  |  |  |  |  | <0.2 M⁻¹ s⁻¹ | 76 M⁻¹ s⁻¹ | 
9 | C=CC(=O)N1CCN(c2ccc(-c3cc(O)ccc3Cl)cc2C#N)CC1 [CP-009] |  |  |  |  |  | <0.2 M⁻¹ s⁻¹ | 5.8 M⁻¹ s⁻¹ | 
10 | C=CC(=O)N1CCN(C(=O)c2cc(-c3cc(Cl)ccc3Cl)c(Cl)cc2O)CC1 [CP-010] |  |  |  |  |  | 2.9 M⁻¹ s⁻¹ | 2.3 M⁻¹ s⁻¹ | 
11 | C=CC(=O)N1CCN(c2ncnc3cc(Cl)c(-c4ccccc4Cl)cc23)CC1 [CP-011] |  |  |  |  |  | 5.0 M⁻¹ s⁻¹ | 1.1 M⁻¹ s⁻¹ | 
